Test results published in patent publication US10881653B2, “Tricyclic compounds and their use in the treatment of cancer” (The United States of America, as represented by the …, priority 2015, dated 2021).
Structures can show the parent of a compound that is named as a salt.

Molecular target: T1, gluthathione reductase (GR) (Homo sapiens, UniProt P00390)
T1 sequence (P00390 44-522): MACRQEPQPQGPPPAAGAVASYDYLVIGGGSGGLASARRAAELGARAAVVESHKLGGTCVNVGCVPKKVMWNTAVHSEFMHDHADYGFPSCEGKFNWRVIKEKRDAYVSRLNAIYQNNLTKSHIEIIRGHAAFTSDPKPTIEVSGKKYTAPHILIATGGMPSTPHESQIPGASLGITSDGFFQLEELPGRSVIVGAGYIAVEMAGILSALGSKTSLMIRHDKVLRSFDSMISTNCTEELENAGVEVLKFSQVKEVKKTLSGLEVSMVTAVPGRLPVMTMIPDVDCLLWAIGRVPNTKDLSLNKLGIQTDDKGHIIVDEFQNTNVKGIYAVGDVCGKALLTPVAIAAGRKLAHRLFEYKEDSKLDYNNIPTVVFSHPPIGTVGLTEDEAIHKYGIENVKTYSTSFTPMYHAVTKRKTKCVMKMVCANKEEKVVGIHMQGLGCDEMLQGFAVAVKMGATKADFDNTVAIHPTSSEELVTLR
Assay: Inhibition of recombinant GR (GSSG assay)
Type: biochemical
Method in brief: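 Human TrxR1 (15 nM) or GR (2 nM) preincubated 15 min with compound, 250 μM NADPH, 0.1 mg/ml BSA in 50 mM Tris pH 7.5, 2 mM EDTA, 1% DMSO. Reaction started with 2.5 mM DTNB (TrxR1, A412) or 1 mM GSSG (GR, A340). Percent activity relative to DMSO and no-enzyme blanks.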

O=C1C=C[C@H]2[C@@H]3C(=O)N(c4ccccc4)C(=O)[C@@H]3[C@@H]1N2Cc1ccccc1 (relative stereo) [Example 1, exo-11-Benzyl-4-phenyl-4,11-diazatricyclo[5.3.1.0^2,6]undec-9-ene-3,5,8-trione Trifluoroacetate]
IC50 (Biological Example 1, 2 nM GR, 250 μM NADPH, 15 minutes incubation): > 100 µM | IC50 (Biological Example 4, assays of Biological Example 1): > 100 µM
